Test [1] has as its system Human Immunodeficiency Virus type 1 (HIV) strain #237228 in human peripheral blood lymphocytes (PBLs). As to the kind of experiment: Anti-HIV-1 antiviral activity in acutely infected peripheral blood lymphocytes (CPE and RT activity). It is filed as cell-based, Human Immunodeficiency Virus type 1 (HIV); human cells. Particulars: for IC100: Human immunodeficiency virus 1, 144 h, PBL cells, acute HIV-1 infection, day 6, concentration at which virus replication is inhibited (CPE negative or trace, >95% inhibition of RT activity); for antiviral index (Al), PBL cells: only non-toxic concentrations used, 8640 min. The text has this:
(§1) The antiviral activity of representative compounds of the present invention has been determined at the Antivirals Laboratory, Fairfield Hospital, Fairfield, Victoria, Australia. In this test a stock solution of each compound was made in DMSO, then diluted in culture medium (RF 10) to 2× the final concentration required for test. The final concentration of DMSO was 1% or below. Approximately 250,000 continuous lymphocytes of human origin (MT2 cells) or 750,000 human peripheral blood lymphocytes (PBLs) were exposed to dilutions of each test compound, then immediately infected with Human Immunodeficiency Virus type 1 (HIV) strain #237228 (a clinical isolate obtained from a human source). The infectivity titers were expressed as tissue culture 50% infective dose (TCID50 per ml) with 1 TCID50 corresponding to the amount of supernatant required to infect 50% of the replicate cell cultures. The 250 and 200 TCID50 were used for MT2 and PBL cells respectively. The cell/drug/virus mixture was then incubated at 37° C./CO2 in a 24-well microtitre plate. Fresh amounts of the appropriate dilution of each drug were added to both MT2 and PBL cultures at day 3. At day 6, the extent of HIV-specific cytopathic effects (CPE) associated with each concentration of test compound in each of the cultures was rated according to the following scale:
(§2) 4+: 75-100% of cells showing 3+: good CPE
(§3) 3+: 50-75% of cells showing 2+: moderate CPE
(§4) 2+: 25-50% of cells showing 1+: low CPE
(§5) 1+: 5-25% of cells showing trace: minimal CPE
(§6) +/-: less than 5% CPE Negative: no CPE
(§7) The activity of the compounds at each concentration was also assessed by their ability to inhibit viron-associated reverse transcriptase (RT) activity in the culture supernates. At the time of rating of CPE, supernatant fluids from each well were removed and RT activity measured using a standard assay. CPE ratings of negative, ± (in MT2 cells) or trace (in PBLs), with greater than 95% inhibition of RT activity, was considered to represent IC100 (the concentration of compound at which the virus replication is inhibited). Control cultures included in each test were:
(§8) (a) HIV-infected cells in the absence of test compound.
(§9) (b) Uninfected cells in the absence of tested compound.
(§10) (c) Cell toxicity control consisting of uninfected cells treated with dilutions of test compound.
(§11) At the conclusion of each experiment, viable cells in these cultures, as determined by tryptan blue exclusion, were compared with the counts obtained in (b), above.

In test [2] the test system is Human Immunodeficiency Virus type 1 (HIV) strain #237228 in MT2 cells. Briefly: Anti-HIV-1 antiviral activity in acutely infected MT2 cells (CPE and RT activity). It is filed as cell-based. Particulars: for IC100: Human immunodeficiency virus 1, 144 h, acute HIV-1 infection, day 6, concentration at which virus replication is inhibited (CPE negative or ±, >95% inhibition of RT activity); for antiviral index (Al), MT2 cells: only non-toxic concentrations used, 8640 min; for IC80: Human immunodeficiency virus 1, printed in the IC100 column with footnote (b) IC80.
Text: as §1, §2, §3, §4, §5, §6, §7, §8, §9, §10, §11

SMILES strings stand for the structures.

With `CC(C)[C@H](NC(=O)c1ccc2ccccc2n1)C(=O)N[C@@H](Cc1ccccc1)C(O)CN1CC2CCCCC2CN1C(=O)OC(C)(C)C` (stereo partly shown) [Compound 3], in test [1], the IC100 came to 1 µM and the “antiviral index (Al), PBL cells” value came out at 5. Besides, in test [2], the IC100 is 1 µM and the “antiviral index (Al), MT2 cells” value worked out at 5.

As to `CC(C)N(C[C@H](O)[C@H](Cc1ccccc1)NC(=O)[C@H](CC(N)=O)NC(=O)c1ccc2ccccc2n1)NC(=O)NC(C)(C)C` [Compound 14, 1-(t-Butylamino)carbonyl-2-[(2S,3S)-2-hydroxy-3-(N-quinaldyl-L-asparaginyl)amino-4-phenylbutyl]-2-isopropylhydrazine], in test [1], the IC100 stood at 1 µM and the “antiviral index (Al), PBL cells” value is above 50. In test [2], the IC100 came to 1 µM and the “antiviral index (Al), MT2 cells” value is 50.

As a reminder, the IC50 is the concentration at which inhibition is half-maximal. Read a low IC50 as greater potency. As for `CC(C)(C)OC(=O)N1CC2CCCCC2CN1CC(O)[C@H](Cc1ccccc1)NC(=O)OCc1ccccc1` (stereo partly drawn) [Compound 1, cis-1,6-3-t-Butoxycarbonyl-4-[(2RS,3S)-2-hydroxy-3-(phenylmethoxycarbonyl)amino-4-phenylbutyl]-3,4-diaza-bicyclo-[4.4.0]decane], in test [2] (Human immunodeficiency virus 1, printed in the IC100 column with footnote (a) IC50), the IC50 is 10 µM. For the same molecule, the “antiviral index (Al), MT2 cells” value in test [2] is 1.

`C[C@@H](O)[C@H](NC(=O)c1ccc2ccccc2n1)C(=O)N[C@@H](Cc1ccccc1)C(O)CN1CC2CCCCC2CN1C(=O)OC(C)(C)C` (stereo partly drawn) [Compound 5, cis-1,6-3-t-Butoxycarbonyl-4-[(2RS,3S)-2-hydroxy-3-(N-quinaldyl-L-threonyl)amino-4-phenylbutyl]-3,4-diaza-bicyclo[4.4.0]decane]: in test [1], the IC100 is 1 µM and the “antiviral index (Al), PBL cells” value is reported as below 10. Further, in test [2], the IC100 was determined as 1 µM and the “antiviral index (Al), MT2 cells” value was below 10.

In the case of `CC(C)(C)OC(=O)N1CC2CCCCC2CN1C[C@H](O)[C@H](Cc1ccccc1)NC(=O)[C@H](CC(N)=O)NC(=O)c1ccc2ccccc2n1` (stereo partly drawn) [Compound 2b, cis-1,6-3-t-Butoxycarbonyl-4-[(2S, 3S)-2-hydroxy-3-(N-quinaldyl-L-asparaginyl)amino-4-phenylbutyl]-3,4-diaza-bicyclo[4.4.0]decane], in test [1], the IC100 was 0.1 µM and the “antiviral index (Al), PBL cells” value was determined as 100. In addition, in test [2], the IC100 amounted to 0.1 µM and the “antiviral index (Al), MT2 cells” value amounted to 50.

As to `CC(C)N(C[C@H](O)[C@H](Cc1ccccc1)NC(=O)[C@H](CC(N)=O)NC(=O)c1ccccn1)NC(=O)OC(C)(C)C` [Compound 15, t-Butyl 3-isopropyl-3-[(2S,3S)-2-hydroxy-3-(N-picolinyl-L-asparaginyl)amino-4-phenylbutyl]carbazate], in test [1], the IC100 came out at 1 µM and the “antiviral index (Al), PBL cells” value came out at 200. For the same molecule, in test [2], the IC100 is 1 µM and the “antiviral index (Al), MT2 cells” value stood at 100.

For `CC(C)[C@H](NC(=O)OCc1ccccn1)C(=O)N[C@@H](Cc1ccccc1)C(O)CN1CC2CCCCC2CN1C(=O)OC(C)(C)C` (stereo partly drawn) [Compound 6, cis-1,6-3-t-Butoxycarbonyl-4-[(2RS,3S)-2-hydroxy-3-[N-(2-pyridyl)methoxycarbonyl-L-valyl]amino-4-phenylbutyl]-3,4-diaza-bicyclo[4.4.0]decane], in test [1], the IC100 amounted to 1 µM and the “antiviral index (Al), PBL cells” value was below 5. In test [2], the IC100 is 1 µM and the “antiviral index (Al), MT2 cells” value is reported as below 5.

Regarding `CC(C)(C)OC(=O)N1CC2CCCCC2CN1CC(O)[C@H](Cc1ccccc1)NC(=O)[C@H](CCC(N)=O)NC(=O)c1ccc2ccccc2n1` (stereo partly drawn) [Compound 4, cis-1,6-3-t-Butoxycarbonyl-4-[(2RS,3S)-2-hydroxy-3-(N-quinaldyl-L-glutaminyl)amino-4-phenylbutyl]-3,4-diaza-bicyclo[4.4.0]decane], in test [1], the IC100 stood at 1 µM and the “antiviral index (Al), PBL cells” value is recorded as 10. Also, in test [2], the IC100 amounted to 1 µM and the “antiviral index (Al), MT2 cells” value was 10.

On to `CC(C)N(C[C@H](O)[C@H](Cc1ccccc1)NC(=O)[C@H](CC(N)=O)NC(=O)c1ccc2ccccc2n1)NC(=O)C(C)(C)C` [Compound 13, 1-Trimethylacetyl-2-[(2S,3S)-2-hydroxy-3-(N-quinaldyl-L-asparaginyl)amino-4-phenylbutyl]-2-isopropylhydrazine], for which, in test [1], the IC100 was 1 µM and the “antiviral index (Al), PBL cells” value is recorded as above 50. Also, in test [2], the IC100 is 1 µM and the “antiviral index (Al), MT2 cells” value is 50.

Take `CC(C)(C)OC(=O)NN(Cc1ccccc1)C[C@H](O)[C@H](Cc1ccccc1)NC(=O)[C@H](CC(N)=O)NC(=O)c1ccc2ccccc2n1` [Compound 16, t-Butyl 3-benzyl-3-[(2S,3S)-2-hydroxy-3-(N-quinaldyl-L-asparaginyl)amino-4-phenylbuty]carbazate]: in test [1], the IC100 amounted to 1 µM and the “antiviral index (Al), PBL cells” value came to 1. Besides, in test [2], the IC100 came out at 1 µM and the “antiviral index (Al), MT2 cells” value stood at 100.

As usually defined, the IC80 is the point of the concentration-response curve where the effect stands at 80%. In the case of `CC(C)(C)OC(=O)N1CC2CCCCC2CN1C[C@H](O)[C@H](Cc1ccccc1)NC(=O)[C@H](CC(N)=O)NC(=O)c1ccc2ccccc2n1` (single isomer, unassigned) [Compound 2b.A], in test [1], the IC100 turned out to be 0.01 µM and the “antiviral index (Al), PBL cells” value is 1000. In addition, in test [2], the IC80 was 10 nM and the “antiviral index (Al), MT2 cells” value is reported as 100.

Turning to `CC(C)(C)OC(=O)N1CCCCN1C[C@H](O)[C@H](Cc1ccccc1)NC(=O)[C@H](CC(N)=O)NC(=O)c1ccc2ccccc2n1` [Compound 19, 1-t-Butyloxycarbonyl-2-[(2S,3S)-2-hydroxy-3-(N-quinaldyl-L-asparaginyl)amino-4-phenylbutyl]hexahydropyridazine], in test [1], the IC100 is 0.1 µM and the “antiviral index (Al), PBL cells” value is 200. In addition, in test [2], the IC100 came out at 1 µM and the “antiviral index (Al), MT2 cells” value is 10.

On to `CC(C)N(C[C@H](O)[C@H](Cc1ccccc1)NC(=O)[C@H](CC(N)=O)NC(=O)c1ccccc1)NC(=O)OC(C)(C)C` [Compound 18, t-Butyl 3-isopropyl-3-[(2S,3S)-2-hydroxy-3-(N-benzoyl-L-asparaginyl)amino-4-phenylbutyl]carbazate], for which, in test [1], the IC100 is 1 µM and the “antiviral index (Al), PBL cells” value is above 150. In test [2], the IC100 came out at 1 µM and the “antiviral index (Al), MT2 cells” value worked out at 10.

As for `CC(C)(C)OC(=O)N1CC2CCCCC2CN1C[C@H](O)[C@H](Cc1ccccc1)NC(=O)[C@H](CC#N)NC(=O)c1ccc2ccccc2n1` (stereo partly drawn) [Compound 20, cis-1,6-3-t-Butoxycarbonyl-4-[(2S,3S)-2-hydroxy-3-(N-quinaldyl-3-cyano-L-alanyl)amimo-4-phenylbutyl]-3,4-diaza-bicyclo[4.4.0]decane], in test [1], the IC100 is 1 µM and the “antiviral index (Al), PBL cells” value is listed as 10. In test [2], the IC100 is 1 µM and the “antiviral index (Al), MT2 cells” value came out at 10.

As to `CC(C)[C@H](NC(=O)c1ccc2ccccc2n1)C(=O)N[C@@H](Cc1ccccc1)[C@H](O)CN(NC(=O)OC(C)(C)C)C(C)C` [Compound 9, t-Butyl 3-Isopropyl-3-[(2R,3S)-2-hydroxy-3-(N-quinaldyl-L-valyl)amino-4-phenylbutyl]carbazate], in test [2], the IC100 is 5 µM and the “antiviral index (Al), MT2 cells” value came to 4.

With `CC(CCc1ccccc1)N(C[C@@H](O)[C@H](Cc1ccccc1)NC(=O)[C@H](CC(N)=O)NC(=O)c1ccc2ccccc2n1)NC(=O)OC(C)(C)C` (stereo partly shown) [Compound 12], in test [2], it took 1000 nM to reach the 80% level (IC80) and the “antiviral index (Al), MT2 cells” value stood at 10.

The values are drawn from patent US6258806A, “Amine derivatives of oxo- and hydroxy- substituted hydrocarbons” (Narhex Limited, priority 1992, dated 2001).
